Experimental data reported in patent US20060106099A1, “Novel inhibitors of ubiquitin isopeptidases” (priority 2002, published 2006).
Read-outs that look alike come from different tables or passages of the source.

Columns and labels:
[1] = system: HCT 116 −/− cells; assay: MTT cell viability assay, HCT 116 p53 −/− cells; conditions: for EC50: Homo sapiens, HCT-116, 48 h, read-out: Cytotoxic Potency (EC50) HCT −/−
Protocol: (§1) Cell viability was measured with MTT reagent as described in materials and methods.
(§2) Cell viability was detected by the MTT assay. Briefly, 1×10^5 cells were incubated per well of a sterile, 96-well assay plate with 0-60 μM of test compounds for 48 hours. MTT reagent was added to each well, final concentration of 0.5 mg/mL, and incubated for an additional 3 hours. The media was aspirated and remaining MTT reagent from each well and added 100 μL of HCl:isopropanol (1:24). The absorbance of each sample was measured at 405 nm.

[2] = system: p21; assay: p21 accumulation in RKO cells; format: cell-based, human; conditions: 6 h
Protocol: It was therefore hypothesized that the isopeptidase inhibitors PNG 4 (8) and PNG 6 (10) would cause a similar accumulation of p21 protein. RKO cells were treated with 2 μM and 7 μM of 8 and 10, 50 μM Etoposide, 60 μM PGA2 (3), or 0.5% DMSO for 6 h before harvesting. Protein was then quantitated, fractionated by SDS-PAGE, and probed for p21 protein. The p21 band intensities were then analyzed and quantitated using densitometry. The ratio of p21 in treated cells to control cells was calculated by dividing the amount of p21 in treated cells by the amount in control cells and multiplied by 100 to give percent.

[3] = system: RKO cells; assay: MTT cell viability assay, RKO cells
Protocol: as §1, §2

[4] = system: HCT 116 +/+ cells; assay: MTT cell viability assay, HCT 116 p53 +/+ cells; conditions: for EC50: Homo sapiens, HCT-116, 48 h, read-out: Cytotoxic Potency (EC50) HCT +/+
[5] = system: p53; assay: p53 accumulation, ratio RKO-E6 cells/RKO cells (immunoblot, densitometry); format: cell-based, human; conditions: 6 h; etoposide 50 μM, MG115, NSC-302979, DBA 20 μM, others 60 μM
Protocol: A) Accumulation of polyubiquitin. RKO-E6 cells were treated with DMSO vehicle for 24 h, 37° C., or with the concentrations of test compounds that gave 80% cell death (as determined by cell viability assay at 48 h) for 6, 12, or 24 h, 37° C. […] Schematic depicting p53 degradation via the proteasome pathway in RKO cells versus RKO-E6 cells. The activity of the HPV E6 oncoprotein hastens p53 degradation in RKO-E6 cells. ii. RKO and RKO-E6 cells were treated with vehicle, etoposide (50 μM), MG115 (20 μM), Δ12-PGJ2 (60 μM), NSC-302979 (20 μM, DBA (20 μM), curcumin (60 μM), PGB1 (60 μM), NSC-156236, (60 XM)or DPTP 60 μM for 6 h, 37° C. Lysates were fractionated by SDS-PAGE and their p53 content determined immunochemically. iii. p53 levels were measured by densitometry and the ratio of p53 protein in RKO-E6 cells/RKO cells calculated.
The medium was removed and cells lysed in 50 mM Tris, pH 7.4, 100 mM NaCl, 2 mM EDTA with 0.1% SDS, 0.1% deoxycholate, 1× complete protease inhibitor mixture. Protein concentration was measured by the Bradford method. Equal portions of the total cell lysate were fractionated from each sample (12.5 μg of protein) by SDS-PAGE. Proteins were transferred to poly(vinylidene difluoride) blocked with 5% (w/v) nonfat dry milk in Trisbuffered saline [20 mM Tris-HCl, pH 7.5, 100 mM sodium chloride, 0.1% (v/v) Tween 20]. Proteins were detected immunochemically by using primary antibodies directed against p53 (1:4000) or ubiquitin (1:1000), followed by horseradish peroxidase-conjugated secondary antibodies (1:4000). Antigen-antibody complexes were detected with enhanced chemiluminescence reagents. Gels were scanned and quantified intensities using Kodak 1D Image Analysis Software.

[6] = system: p53; assay: p53 accumulation ratio in RKO-E6 and RKO cells, punaglandin study; format: cell-based, human; conditions: 6 h; 50 μM Etoposide, 60 μM PGA2
Protocol: To determine if punaglandins inhibit p53 degradation by disrupting the proteasome pathway, the accumulation ratio of p53 was determined in RKO and RKO-E6 cells treated with selected punaglandins, PNG 4 (8) and PNG 6 (10). Equally seeded RKO and RKO-E6 cells were treated with vehicle (0.5% DMSO), 50 μM Etoposide, 60 μM PGA2 (3), 7 μM PNG 6 (10), and 7 μM PNG 4 (8). After 6 h incubation with vehicle or drug, cells were lysed and harvester. […] of protein from each lysate was fractionated by SDS-PAGE and probed for p53 protein. The p53 band intensities were then analyzed and quantitated using densitometry. The ratio of p53 in RKO-E6 to RKO cells was calculated by dividing the amount of p53 in RKO-E6 cells by the amount in RKO cells and multiplying by 100 to give percent

[7] = system: RKO-E6 cells; assay: MTT cell viability assay, RKO-E6 cells; conditions: for EC50: Homo sapiens, RKOE6, 48 h, read-out: Cytotoxic Potency (EC50) RKO-E6
Protocol: as §1, §2

[8] = system: isopeptidase; conditions: cited from earlier work
[9] = system: HCT 116 +/+ cells; conditions: Mullally et al., University of Utah, 2003; read-out: EC50 in competent HCT 116 cells; cited from earlier work
[10] = system: ubiquitin isopeptidases; assay: In vitro isopeptidase activity in HCT 116 lysates, Ub-PEST; format: biochemical, human; conditions: 2-200 μM, 45 min
Protocol: Isopeptidase Assay. It was hypothesized that the punaglandins would inhibit ubiquitin-isopeptidase activity of the proteasome pathway as does the prostaglandin, Δ^12-PGJ2 (1), but with greater potency because of the chlorinated C-10. To validate this theory, cellular isopeptidase enzymatic activity was measured in vitro after treatment with individual punaglandins, PNG 2 (6), PNG 3 (7), and Z-PNG 4 (9) and in vivo after individual treatment with PNG 4 (8) and PNG 6 (10). This activity was determined utilizing the simple isopeptidase substrate, ubiquitin-PEST (Ub-PEST), a full/length ubiquitin (Ub) molecule fused with an 18-amino acid C-terminal peptide extension that most isopeptidases use as a substrate. The polypeptide extension contains regions rich in Pro (P), Glu (E), Ser (S), and Thr (T) residues called PEST motifs that are responsible for rapid degradation of these and other unstable proteins. Ub isopeptidases specifically cleave this peptide extension, yielding free, full-length Ub. Both the fused Ub-PEST (10.5 kDa) and the cleaved, free Ub (8.5 kDa) can be observed via immunochemical detection.
In Vitro Isopeptidase Activity. PNG 2 (6), PNG 3 (7), and Z-PNG 4 (9) were initially analyzed for isopeptidase activity in vitro in HCT 116 lysates. Cells were lysed with isopeptidase activity buffer and protein concentration adjusted to 0.3 mg/mL per sample. Each sample was subsequently incubated with 2 μM, 6 μM, 20 μM, 60 μM, or 200 μM of PNG 2 (6), PNG 3 (7), Z-PNG 4 (9), Δ^12-PGJ2 (1), and PGA1 (2) in addition to 50 μg/ml of Ub-PEST. Negative control cells were treated with vehicle (0.5% DMSO) and equivalent Ub-PEST. […] The amount of fused Ub-PEST and free Ub product was determined by SDS-PAGE fractionation.

[11] = system: caspase-3; assay: Caspase-3 activity in RKO cells (DEVD-AMC); format: cell-based, human; conditions: PNG 4 0.5 μM, PNG 6 1 μM, Taxol 1 μM
Protocol: To determine if selected punaglandins, PNG 4 (8) and PNG 6 (10) also induce apoptosis in RKO cells in a time dependent manner, caspase-3 activity was determined. During apoptosis the caspases, a family of cysteinyl aspartate-specific proteases, are activated. These enzymes cleave specific substrates resulting in biochemical and morphological changes associated with apoptosis. Therefore, detection of activated caspases can be used as a biochemical marker for apoptosis. Caspase-3 has substrate specificity for the amino acid sequence Asp-Glu-Val-Asp (DEVD), cleaving after Asp, and therefore caspase activity can be measured by monitoring cleavage of the substrate DEVD-AMC (Asp-Glu-Val-Asp-7-amino-4-[…]).
RKO cells were treated for 4, 8, and 12 h with PNG 4 (8) at 0.5 μM and PNG 6 (10) at 1 μM. Taxol, a known apoptotic inducer at 1 μM, was used as a positive control, and negative control cells were treated with vehicle (0.5% DMSO). Caspase-3 activity rose steadily as expected from 4-12 h in cells treated with PNG 4 (8), PNG 6 (10), and Taxol but remained constant in the untreated control cells.

[12] = Homo sapiens, RKO, 48 h, read-out: Cytotoxic Potency (EC50) RKO

| Structure (SMILES) | EC50 [1] [µM] | EC50 [3, 12] [µM] | EC50 [4] [µM] | p53 in RKO-E6 cells as percent of RKO cells [6] [%] | EC50 [7] [µM] | isopeptidase inhibition relative to Δ12-PGJ2 [8] | other results |
| --- | --- | --- | --- | --- | --- | --- | --- |
| COc1cc([C@@H]2c3cc4c(cc3[C@@H](O[C@@H]3O[C@@H]5CO[C@@H](C)O[C@H]5[C@H](O)[C@H]3O)[C@H]3COC(=O)[C@H]23)OCO4)cc(OC)c1O [Etoposide, etoposide] | 29 ± 6.8 | 7.3 ± 1.6 | 7.8 ± 3.9 | 50 | 20 ± 2.7 |  | potency in HCT 116 −/− cells less than in HCT 116 +/+ cells ([1]; 48 h, MTT): ~4 fold; p21 protein in treated cells relative to control cells ([2]; 50 µM): 290%; ratio of p53 protein [RKO-E6 cells/RKO cells] [5]: 0.1; potency in RKO-E6 cells less than in RKO cells ([7]; 48 h, MTT): ~3 fold |
| CCCCC[C@H](O)/C=C/[C@H]1C=CC(=O)[C@@H]1CCCCCCC(=O)O [PGA1] |  |  |  |  |  | significantly less potent | EC50 ([3]; read-out: EC50 in RKO cell lines, prostaglandins for comparison, comparison values in the text): 33.6 µM; EC50 [9]: 11.6 µM; inhibition of Ub-PEST degradation in HCT 116 lysates [10]: no detectable inhibition |
| CCCCC[C@H](O)/C=C/[C@H]1C=CC(=O)[C@@H]1C/C=C\CCCC(=O)O [PGA2] |  |  |  | 60 |  | significantly less potent | p21 protein in treated cells relative to control cells ([2]; RKO cells, 50 μM Etoposide, 60 μM PGA2, punaglandins 2 and 7 μM): 10% |
| CC(=O)O[C@H]1C(=O)[C@@]2(C)[C@H]([C@H](OC(=O)c3ccccc3)[C@]3(O)C[C@H](OC(=O)[C@H](O)[C@@H](NC(=O)c4ccccc4)c4ccccc4)C(C)=C1C3(C)C)[C@]1(OC(C)=O)CO[C@@H]1C[C@@H]2O [Taxol, paclitaxel] | 0.005 | 0.004 | 0.004 |  | 0.004 |  | cell death in RKO compared with RKO-E6 cells ([3]; 48 h, MTT, isogenic pair): equivalent; cell death in HCT 116 +/+ compared with HCT 116 −/− cells ([4]; 48 h, MTT, isogenic pair): equivalent; Caspase-3 activity from 4-12 h [11]: rose steadily |
